# What was measured:
# Format in all cases: cell-based
# [1] = molecular target: T1, muscle-type (α1β1εδ) receptors (Mus musculus, UniProt P02716+P04756+P20782); assay: Activation of muscle-type receptors; conditions: not shown
# T1 construct: expressed in transfected cells; host or cells: Xenopus laevis oocytes (injected RNA)
# Description: The human nAChR clones were obtained from Jon Lindstrom (University of Pennsylvania, Philadelphia, PA, USA). Mouse muscle subunit clones were obtained from Jim Boulter (Salk Institute, La Jolla, CA, USA) and Paul Gardner (Dartmouth, Hanover, NH, USA). The human resistance-to-cholinesterase 3 (RIC3) clone was obtained from Millet Treinin (Hebrew University, Jerusalem, Israel) and co-injected with α7 to improve the level and speed of α7 receptor expression without affecting the pharmacological properties of the receptors. Subsequent to linearization and purification of the plasmid DNAs, RNAs were prepared using the mMessage mMachine in vitro RNA transcription kit (Ambion, Austin, TX, USA).
# Experiments were conducted using OpusXpress 6000A (Molecular Devices, Union City, CA, USA). […]
# (§1) Solutions were applied from 96-well plates via disposable tips. […] The responses were calculated as both peak current amplitudes and net charge, as previously described. Data were collected at 50 Hz, filtered at 20 Hz for α7 receptors or filtered at 5 Hz for heteromeric nAChR, and analyzed by Clampfit (Molecular Devices, San Jose, CA, USA) and Excel (Microsoft, Redmond, WA, USA). Data were expressed as means ± SEM from at least four oocytes for each experiment and plotted with Kaleidagraph 4.5.2 (Abelbeck Software, Reading, PA, USA). Multi-cell averages were calculated for comparisons of complex responses. […]
# α4(3)β2(2) = molecular target: T2, α4(3)β2(2) (Homo sapiens, UniProt P17787+P43681); assay: Activation of heteromeric nAChR by S1: α4(3)β2(2)
# T2 construct: expressed in transfected cells; host or cells: Xenopus laevis oocytes (injected RNA)
# T2 sequence (P17787 26-502): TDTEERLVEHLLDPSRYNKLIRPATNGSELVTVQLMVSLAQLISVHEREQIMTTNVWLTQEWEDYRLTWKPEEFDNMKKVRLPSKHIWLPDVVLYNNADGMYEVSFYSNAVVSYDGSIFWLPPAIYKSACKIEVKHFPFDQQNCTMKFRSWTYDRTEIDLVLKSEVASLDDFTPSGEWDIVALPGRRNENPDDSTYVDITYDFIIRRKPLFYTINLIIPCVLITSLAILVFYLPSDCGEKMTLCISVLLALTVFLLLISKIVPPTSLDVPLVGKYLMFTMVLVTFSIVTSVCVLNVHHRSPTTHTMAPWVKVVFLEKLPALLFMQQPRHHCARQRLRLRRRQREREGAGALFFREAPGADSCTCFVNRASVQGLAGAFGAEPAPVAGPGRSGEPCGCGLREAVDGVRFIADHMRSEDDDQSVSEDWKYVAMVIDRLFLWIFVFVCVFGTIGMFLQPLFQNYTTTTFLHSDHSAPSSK
# T2 sequence (P43681 29-627 limits assumed): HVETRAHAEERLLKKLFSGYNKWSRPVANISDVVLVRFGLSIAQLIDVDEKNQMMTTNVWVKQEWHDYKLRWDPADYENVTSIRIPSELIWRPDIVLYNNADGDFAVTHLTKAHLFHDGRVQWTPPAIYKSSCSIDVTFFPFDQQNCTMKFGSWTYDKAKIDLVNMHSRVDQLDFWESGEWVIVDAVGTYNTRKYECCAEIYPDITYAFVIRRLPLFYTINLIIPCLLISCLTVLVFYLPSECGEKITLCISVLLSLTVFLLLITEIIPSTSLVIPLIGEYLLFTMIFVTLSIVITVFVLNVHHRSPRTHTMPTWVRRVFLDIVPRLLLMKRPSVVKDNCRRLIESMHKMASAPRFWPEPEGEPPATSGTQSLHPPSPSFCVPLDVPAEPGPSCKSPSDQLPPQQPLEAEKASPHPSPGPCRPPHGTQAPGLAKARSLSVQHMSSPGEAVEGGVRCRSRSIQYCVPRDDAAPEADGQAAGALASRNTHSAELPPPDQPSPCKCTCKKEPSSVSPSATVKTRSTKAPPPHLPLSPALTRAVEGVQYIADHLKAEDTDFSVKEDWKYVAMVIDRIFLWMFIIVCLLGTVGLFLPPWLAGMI
# T2 sequence (P43681 29-627 limits assumed): as above
# Description: (§2) Concatamers were used in order to obtain heteromeric receptors with known subunit composition. The β2-6-α4 concatamer was co-expressed with monomeric α4, β2, or α5 to obtain receptors with the composition α4(3)β2(2), α4(2)β2(3), or α4(2)β2(2)α5, respectively. A concatamer of five linked subunits was used to obtain the β3α4 β2α6β2 receptors. The α3β4 receptors were formed from the co-expression of α3 and β4 subunit monomers at equal ratios. Note that the data were initially measured relative to internal ACh control responses for each oocyte (Methods). Responses were subsequently adjusted for the relative values of the ACh controls and the ACh maximum responses for each of the various subtypes, determined in previous experiments.
# (§3) Figure 6 Activation of heteromeric neuronal nAChR by S1. […] Data are the average peak currents (n = 6–8 oocytes ± SEM), measured relative to initial ACh control responses for each oocyte (concentrations listed in Methods). Responses were subsequently adjusted for the relative values of the ACh controls and the ACh maximum responses for each of the various subtypes, determined in previous experiments. […]
# (§4) Solutions were applied from 96-well plates via disposable tips. […] The responses were calculated as both peak current amplitudes and net charge, as previously described. […] Multi-cell averages were calculated for comparisons of complex responses. […]
# α3β4 = molecular target: T3, α3β4 (Homo sapiens, UniProt P30926+P32297); assay: Activation of heteromeric nAChR by S1: α3β4
# T3 construct: expressed in transfected cells; host or cells: Xenopus laevis oocytes (injected RNA)
# T3 sequence (P32297 32-505): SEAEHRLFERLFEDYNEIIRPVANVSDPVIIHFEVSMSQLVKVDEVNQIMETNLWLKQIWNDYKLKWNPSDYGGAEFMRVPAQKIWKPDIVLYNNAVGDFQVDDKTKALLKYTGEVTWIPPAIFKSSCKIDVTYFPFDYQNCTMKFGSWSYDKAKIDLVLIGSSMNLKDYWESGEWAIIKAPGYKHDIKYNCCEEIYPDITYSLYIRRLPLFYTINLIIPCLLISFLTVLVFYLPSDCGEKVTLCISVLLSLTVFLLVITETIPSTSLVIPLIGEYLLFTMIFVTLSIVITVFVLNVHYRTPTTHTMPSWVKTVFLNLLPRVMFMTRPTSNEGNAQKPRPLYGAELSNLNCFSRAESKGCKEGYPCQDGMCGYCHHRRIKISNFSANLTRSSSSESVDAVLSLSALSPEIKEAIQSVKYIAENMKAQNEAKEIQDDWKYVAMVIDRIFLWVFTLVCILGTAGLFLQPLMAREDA
# T3 sequence (P30926 22-498): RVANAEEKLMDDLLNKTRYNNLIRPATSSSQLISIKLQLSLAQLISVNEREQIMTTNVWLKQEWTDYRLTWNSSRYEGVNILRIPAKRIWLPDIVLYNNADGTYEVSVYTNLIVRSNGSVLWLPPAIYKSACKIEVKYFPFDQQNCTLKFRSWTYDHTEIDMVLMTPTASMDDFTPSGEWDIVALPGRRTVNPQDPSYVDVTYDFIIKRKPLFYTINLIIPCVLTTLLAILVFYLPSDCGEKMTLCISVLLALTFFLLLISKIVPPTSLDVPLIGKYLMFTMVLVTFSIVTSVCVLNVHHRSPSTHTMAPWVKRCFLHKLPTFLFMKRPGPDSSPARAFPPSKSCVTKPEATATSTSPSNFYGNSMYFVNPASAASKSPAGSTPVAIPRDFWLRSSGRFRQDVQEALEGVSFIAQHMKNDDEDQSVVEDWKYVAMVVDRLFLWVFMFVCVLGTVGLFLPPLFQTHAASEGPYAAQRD
# Description: as §2, §3, §4
# [2] = molecular target: T4, α4(2)β2(2)β2L15’M receptors (Homo sapiens, UniProt P17787+P43681, L280M); assay: Silent agonism of the TQS-sensitive α4β2L15’M mutant receptor
# T4 construct: expressed in transfected cells; host or cells: Xenopus laevis oocytes (injected RNA)
# T4 sequence (P17787 26-502, stated change not applied): as the sequence (P17787 26-502) above
# T4 sequence (P43681 27-627): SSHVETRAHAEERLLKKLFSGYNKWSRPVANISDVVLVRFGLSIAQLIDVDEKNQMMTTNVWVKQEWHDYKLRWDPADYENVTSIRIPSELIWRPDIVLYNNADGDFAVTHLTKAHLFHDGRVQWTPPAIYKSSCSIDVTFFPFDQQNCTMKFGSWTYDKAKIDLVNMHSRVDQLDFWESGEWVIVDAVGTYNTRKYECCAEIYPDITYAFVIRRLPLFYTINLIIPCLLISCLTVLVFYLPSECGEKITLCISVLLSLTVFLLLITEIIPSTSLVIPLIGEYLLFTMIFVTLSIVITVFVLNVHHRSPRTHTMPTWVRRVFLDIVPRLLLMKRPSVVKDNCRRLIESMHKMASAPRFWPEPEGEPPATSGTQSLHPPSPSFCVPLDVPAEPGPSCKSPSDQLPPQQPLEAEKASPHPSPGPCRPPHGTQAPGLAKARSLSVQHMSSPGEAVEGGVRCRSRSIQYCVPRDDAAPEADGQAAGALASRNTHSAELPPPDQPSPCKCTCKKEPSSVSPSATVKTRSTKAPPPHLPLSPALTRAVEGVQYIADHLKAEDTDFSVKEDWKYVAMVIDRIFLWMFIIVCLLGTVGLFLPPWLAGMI
# T4 sequence (P17787 26-502 L280M): as the sequence (P17787 26-502) above, with L255M counted along it
# Experimental: We conducted a screen of the other sulfonium compounds on the α4β2L15’M receptors and identified at least two compounds that gave potentiated responses above our limit of detection indicated by the dotted line in Figure 8B.
# Figure 8 Silent agonism of an α4β2 mutant receptor that is sensitive to the α7 PAM TQS. (A) The averaged raw data of responses of eight oocytes expressing the β2-6-α4 concatamer and the β2L15’M mutant to 100 µM of the sulfonium agonist S1, applied alone or co-applied with 30 µM racemic TQS. […] (B) Evaluation of the effects of the sulfonium compounds, applied alone at 100 µM or co-applied with 30 µM TQS to α4(2)β2(2)β2L15’M receptors. […]
# as §1
# [3] = peak currents relative to ACh maximum
smiles,measurement,setting,value
"C[S+](C)C.[I-] [Compound S1, trimethylsulfonium iodide]",activation of muscle-type receptors,[1],not an effective activator
same,IMax (S1 Activation),α4(3)β2(2); [3],1.2 ± 0.2
same,EC50,"α4(3)β2(2); peak currents, unit inferred",246 ± 104 µM
same,IMax (S1 Activation),α3β4; [3],1.18 ± 0.01
same,EC50,"α3β4; peak currents, unit inferred",1420 ± 19.4 µM
same,activation of α4β2L15’M mutant receptors,[2]; 100 µM applied alone,activated the α4β2L15’M mutant receptors
same,response on co-application with TQS,"[2]; 100 µM compound with 30 µM TQS, limit of detection 20 nA",potentiated by TQS
